Data from ChEMBL document CHEMBL3763120, “Phenyl Benzenesulfonylhydrazides Exhibit Selective Indoleamine 2,3-Dioxygenase Inhibition with Potent in Vivo Pharmacodynamic Activity and Antitumor Efficacy” (J Med Chem, 2016).

Assays:
[1] = biological target: Cysteinyl leukotriene receptor 1 (Homo sapiens) (UniProt Q9Y271); experiment: Inhibition of CysLT1 receptor (unknown origin) at 10 uM
[2] = Plasma concentration in C57BL/6 mouse at 50 mg/kg, po after 2 hrs by LC-MS/MS analysis; type: ADME, organism-based

Chain of Cysteinyl leukotriene receptor 1 (Homo sapiens) (Q9Y271 whole entry): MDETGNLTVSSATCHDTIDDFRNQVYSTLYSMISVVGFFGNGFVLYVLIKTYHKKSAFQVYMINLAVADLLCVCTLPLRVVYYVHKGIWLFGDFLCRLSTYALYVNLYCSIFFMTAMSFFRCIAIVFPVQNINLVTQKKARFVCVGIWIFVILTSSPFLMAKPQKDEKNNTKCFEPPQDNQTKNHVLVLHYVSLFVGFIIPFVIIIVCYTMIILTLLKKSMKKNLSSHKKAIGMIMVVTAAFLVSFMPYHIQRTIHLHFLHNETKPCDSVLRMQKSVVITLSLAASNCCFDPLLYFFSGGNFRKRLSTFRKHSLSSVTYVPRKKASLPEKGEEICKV

SMILES: O=C1Cc2cc(S(=O)(=O)NNc3ccc(Br)cc3)ccc2N1
- inhibition [1]: < 50%
- concentration at 2 h [2]: 4 µM
